The source made the active and inactive calls. The calls are words filed in the database; no cut-off is given here.
Columns and labels:
[1] = target: T1, Vascular endothelial growth factor receptor 2 (Homo sapiens, UniProt P35968)
[2] = target: Epidermal growth factor receptor (Homo sapiens, UniProt P00533)
[3] = target: T2, Platelet-derived growth factor receptor beta (Homo sapiens, UniProt P09619); assay: Inhibition of PDGFBB-induced PDGFRbeta autophosphorylation in human SF539 cells incubated for 60 mins prior to PDGFBB-induction measured after 10 mins by phosphotyrosine ELISA; type: cell-based, SF-539
T2 sequence (P09619 whole entry): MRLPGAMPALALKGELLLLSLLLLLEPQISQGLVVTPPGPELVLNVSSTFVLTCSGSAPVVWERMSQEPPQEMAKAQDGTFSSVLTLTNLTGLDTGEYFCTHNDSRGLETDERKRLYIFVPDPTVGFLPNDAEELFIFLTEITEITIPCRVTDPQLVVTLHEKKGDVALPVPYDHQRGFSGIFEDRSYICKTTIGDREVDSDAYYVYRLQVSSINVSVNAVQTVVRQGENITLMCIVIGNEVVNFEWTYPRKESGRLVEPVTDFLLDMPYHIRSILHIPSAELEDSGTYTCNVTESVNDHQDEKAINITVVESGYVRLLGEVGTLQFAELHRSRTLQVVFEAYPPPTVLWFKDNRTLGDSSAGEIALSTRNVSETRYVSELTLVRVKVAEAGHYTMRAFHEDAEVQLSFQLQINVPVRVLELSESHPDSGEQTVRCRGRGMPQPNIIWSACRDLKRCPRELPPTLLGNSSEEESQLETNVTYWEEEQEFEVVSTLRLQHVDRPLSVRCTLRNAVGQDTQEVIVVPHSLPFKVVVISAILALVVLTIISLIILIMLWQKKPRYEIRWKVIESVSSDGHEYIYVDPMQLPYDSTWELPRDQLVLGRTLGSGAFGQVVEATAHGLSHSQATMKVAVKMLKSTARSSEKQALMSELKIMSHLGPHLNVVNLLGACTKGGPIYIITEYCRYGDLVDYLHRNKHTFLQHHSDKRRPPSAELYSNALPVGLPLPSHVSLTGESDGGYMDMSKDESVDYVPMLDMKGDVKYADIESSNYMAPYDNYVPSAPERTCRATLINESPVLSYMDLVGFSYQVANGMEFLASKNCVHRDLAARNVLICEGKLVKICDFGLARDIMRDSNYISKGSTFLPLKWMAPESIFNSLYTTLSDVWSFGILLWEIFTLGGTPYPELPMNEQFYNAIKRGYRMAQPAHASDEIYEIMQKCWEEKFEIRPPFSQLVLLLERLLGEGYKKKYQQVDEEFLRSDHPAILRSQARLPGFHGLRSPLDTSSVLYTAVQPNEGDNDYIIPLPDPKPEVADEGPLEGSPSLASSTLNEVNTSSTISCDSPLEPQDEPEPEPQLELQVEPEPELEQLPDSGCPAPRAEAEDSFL

[4] = target: T3, Vascular endothelial growth factor receptor 1 (Homo sapiens, UniProt P17948)
T3 sequence (P17948 whole entry): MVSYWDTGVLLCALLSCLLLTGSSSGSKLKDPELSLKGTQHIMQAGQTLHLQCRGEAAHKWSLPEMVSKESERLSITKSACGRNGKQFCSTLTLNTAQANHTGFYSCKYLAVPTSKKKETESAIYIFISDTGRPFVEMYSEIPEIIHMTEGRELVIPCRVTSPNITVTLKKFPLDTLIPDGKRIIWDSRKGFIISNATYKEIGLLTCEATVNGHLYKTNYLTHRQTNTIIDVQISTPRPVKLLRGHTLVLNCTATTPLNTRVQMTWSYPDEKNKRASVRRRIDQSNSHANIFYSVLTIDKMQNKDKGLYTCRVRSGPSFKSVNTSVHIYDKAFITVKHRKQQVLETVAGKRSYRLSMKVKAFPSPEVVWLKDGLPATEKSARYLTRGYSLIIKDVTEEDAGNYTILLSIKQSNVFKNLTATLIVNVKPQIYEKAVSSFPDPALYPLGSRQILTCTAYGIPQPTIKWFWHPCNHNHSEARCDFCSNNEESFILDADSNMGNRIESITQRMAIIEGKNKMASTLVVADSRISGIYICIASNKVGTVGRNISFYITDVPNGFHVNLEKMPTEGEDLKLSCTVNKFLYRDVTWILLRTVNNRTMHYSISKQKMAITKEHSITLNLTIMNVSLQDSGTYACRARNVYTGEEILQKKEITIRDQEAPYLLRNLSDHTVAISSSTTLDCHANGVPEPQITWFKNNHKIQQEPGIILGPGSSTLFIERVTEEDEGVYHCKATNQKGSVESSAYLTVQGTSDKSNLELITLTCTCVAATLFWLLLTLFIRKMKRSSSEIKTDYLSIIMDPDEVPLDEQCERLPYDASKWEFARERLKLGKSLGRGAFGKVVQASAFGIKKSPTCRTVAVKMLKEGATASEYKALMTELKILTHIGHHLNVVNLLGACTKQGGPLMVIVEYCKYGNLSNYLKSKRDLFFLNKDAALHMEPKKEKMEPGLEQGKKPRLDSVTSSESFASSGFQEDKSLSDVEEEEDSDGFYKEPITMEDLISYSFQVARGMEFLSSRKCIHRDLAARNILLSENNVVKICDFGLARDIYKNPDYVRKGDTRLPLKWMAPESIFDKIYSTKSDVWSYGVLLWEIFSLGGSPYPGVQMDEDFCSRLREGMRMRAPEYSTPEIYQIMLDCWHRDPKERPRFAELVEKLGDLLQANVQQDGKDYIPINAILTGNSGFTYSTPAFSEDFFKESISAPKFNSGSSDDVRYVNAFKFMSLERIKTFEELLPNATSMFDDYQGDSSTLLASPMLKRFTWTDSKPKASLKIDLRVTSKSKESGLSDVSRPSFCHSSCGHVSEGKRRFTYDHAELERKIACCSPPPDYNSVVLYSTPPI

[5] = target: T1, Vascular endothelial growth factor receptor 2; remark: listed apart in the source
[6] = target: T3, Vascular endothelial growth factor receptor 1; remark: listed apart in the source
[7] = target: T2, Platelet-derived growth factor receptor beta
COLO 205 [8] = assay: Antimetastatic activity against human COLO205 cells xenografted in athymic NIH-II mouse at 35 mg/kg, ip administered for 3 days per week by hematoxylin and eosin staining; type: functional, organism-based; parameters: dose 35 mg/kg
[9] = (§1) Toxicity in NCr nu/nu mouse assessed as body weight loss administered for 3 days per week measured after 6 weeks; type: organism-based; details: NCr nu/nu, in vivo
COLO 205 [10] = assay: Antitumor activity against human COLO205 cells xenografted in athymic NIH-II mouse assessed as decrease in tumor growth rate at 35 mg/kg, ip administered 3 days per week relative to control; type: functional, organism-based; parameters: dose 35 mg/kg
COLO 205 [11] = assay: Antiangiogenic activity in human COLO205 cells xenografted in athymic NIH-II mouse at 35 mg/kg, ip administered 3 days per week by hematoxylin and eosin staining relative to control; type: functional, organism-based; parameters: dose 35 mg/kg
Mus musculus = assay: as §1; type: organism-based; details: in vivo, 1008 h
COLO 205 [12] = assay: Antimetastatic activity against human COLO205 cells xenografted in athymic NIH-II mouse at 10 mg/kg, ip administered for 3 days per week by hematoxylin and eosin staining; type: functional, organism-based; parameters: dose 10 mg/kg
COLO 205 [13] = assay: Antiangiogenic activity in human COLO205 cells xenografted in athymic NIH-II mouse at 10 mg/kg, ip administered 3 days per week by hematoxylin and eosin staining relative to control; type: functional, organism-based; parameters: dose 10 mg/kg
COLO 205 [14] = assay: Antitumor activity against human COLO205 cells xenografted in athymic NIH-II mouse assessed as decrease in tumor growth rate at 10 mg/kg, ip administered 3 days per week relative to control; type: functional, organism-based; parameters: dose 10 mg/kg

Epidermal growth factor receptor, sequence (P00533 whole entry): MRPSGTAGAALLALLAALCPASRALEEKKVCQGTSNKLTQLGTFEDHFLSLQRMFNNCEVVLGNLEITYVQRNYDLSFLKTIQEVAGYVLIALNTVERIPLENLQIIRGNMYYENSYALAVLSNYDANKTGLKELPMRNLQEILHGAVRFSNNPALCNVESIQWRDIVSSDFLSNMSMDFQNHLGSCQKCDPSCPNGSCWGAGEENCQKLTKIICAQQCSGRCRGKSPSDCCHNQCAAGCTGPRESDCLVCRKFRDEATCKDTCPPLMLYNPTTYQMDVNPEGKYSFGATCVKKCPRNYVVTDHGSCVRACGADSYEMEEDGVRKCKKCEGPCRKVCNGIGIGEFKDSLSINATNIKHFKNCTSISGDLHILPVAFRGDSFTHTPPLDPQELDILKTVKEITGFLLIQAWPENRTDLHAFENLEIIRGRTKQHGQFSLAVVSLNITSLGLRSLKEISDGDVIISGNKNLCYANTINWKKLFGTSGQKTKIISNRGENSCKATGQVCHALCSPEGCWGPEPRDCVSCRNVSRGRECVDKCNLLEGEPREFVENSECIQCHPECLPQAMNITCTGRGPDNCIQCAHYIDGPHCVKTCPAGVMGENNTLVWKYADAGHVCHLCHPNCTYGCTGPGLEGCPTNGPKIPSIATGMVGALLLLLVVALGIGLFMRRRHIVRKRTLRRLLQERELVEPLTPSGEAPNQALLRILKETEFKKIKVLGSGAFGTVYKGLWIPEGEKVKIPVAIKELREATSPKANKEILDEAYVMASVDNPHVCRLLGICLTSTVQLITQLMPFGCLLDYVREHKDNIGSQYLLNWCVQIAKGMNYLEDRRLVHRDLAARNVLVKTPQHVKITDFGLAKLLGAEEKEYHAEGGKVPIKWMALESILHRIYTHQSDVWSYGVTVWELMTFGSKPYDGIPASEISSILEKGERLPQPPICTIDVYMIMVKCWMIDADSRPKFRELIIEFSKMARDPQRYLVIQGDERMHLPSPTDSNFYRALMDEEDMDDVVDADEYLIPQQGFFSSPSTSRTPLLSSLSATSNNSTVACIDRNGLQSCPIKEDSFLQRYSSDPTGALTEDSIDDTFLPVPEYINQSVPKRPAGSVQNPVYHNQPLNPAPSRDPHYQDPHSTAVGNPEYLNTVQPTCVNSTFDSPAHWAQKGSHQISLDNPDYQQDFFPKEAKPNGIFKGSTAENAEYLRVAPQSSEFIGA
T1 sequence (P35968 whole entry): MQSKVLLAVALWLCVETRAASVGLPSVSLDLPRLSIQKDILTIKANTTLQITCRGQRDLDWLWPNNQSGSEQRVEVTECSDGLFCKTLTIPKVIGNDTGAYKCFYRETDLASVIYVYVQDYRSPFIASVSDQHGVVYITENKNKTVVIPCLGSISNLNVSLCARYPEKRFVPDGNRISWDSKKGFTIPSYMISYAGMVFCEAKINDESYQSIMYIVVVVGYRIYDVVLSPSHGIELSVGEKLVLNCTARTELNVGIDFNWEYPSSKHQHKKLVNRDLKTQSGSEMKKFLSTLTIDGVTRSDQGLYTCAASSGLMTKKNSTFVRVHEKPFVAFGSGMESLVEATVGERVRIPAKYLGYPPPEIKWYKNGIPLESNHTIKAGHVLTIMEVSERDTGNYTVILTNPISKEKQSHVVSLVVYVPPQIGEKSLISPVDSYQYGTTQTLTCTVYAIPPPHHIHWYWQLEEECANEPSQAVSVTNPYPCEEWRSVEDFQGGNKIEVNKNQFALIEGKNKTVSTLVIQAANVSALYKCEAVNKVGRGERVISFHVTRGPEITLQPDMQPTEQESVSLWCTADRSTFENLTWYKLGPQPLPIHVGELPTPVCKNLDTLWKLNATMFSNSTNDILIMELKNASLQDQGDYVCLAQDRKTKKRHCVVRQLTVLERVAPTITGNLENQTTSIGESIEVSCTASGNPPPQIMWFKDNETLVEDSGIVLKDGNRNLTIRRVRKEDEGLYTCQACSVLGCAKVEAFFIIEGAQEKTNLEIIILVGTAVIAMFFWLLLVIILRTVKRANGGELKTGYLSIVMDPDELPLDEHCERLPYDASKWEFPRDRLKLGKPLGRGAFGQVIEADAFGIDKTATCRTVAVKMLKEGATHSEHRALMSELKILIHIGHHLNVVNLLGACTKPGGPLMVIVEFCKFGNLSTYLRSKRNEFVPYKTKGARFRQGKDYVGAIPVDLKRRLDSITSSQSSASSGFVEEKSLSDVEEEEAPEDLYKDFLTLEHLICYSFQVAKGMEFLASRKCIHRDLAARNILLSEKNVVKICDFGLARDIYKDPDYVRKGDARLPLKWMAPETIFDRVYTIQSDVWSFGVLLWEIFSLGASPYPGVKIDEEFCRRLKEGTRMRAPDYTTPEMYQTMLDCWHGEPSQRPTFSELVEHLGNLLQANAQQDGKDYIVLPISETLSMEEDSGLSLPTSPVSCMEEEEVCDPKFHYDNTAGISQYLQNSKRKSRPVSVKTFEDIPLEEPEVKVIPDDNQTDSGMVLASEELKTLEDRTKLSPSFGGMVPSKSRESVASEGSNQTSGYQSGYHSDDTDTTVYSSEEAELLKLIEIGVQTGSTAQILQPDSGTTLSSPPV

Structure (SMILES): Nc1nc(Nc2cccc(Br)c2)c2ccn(Cc3ccc4ccccc4c3)c2n1
- IC50 [1]: 22.9 µM
- IC50 [2]: > 200 µM
- IC50 [3]: 212 µM
- IC50 [4]: 50.8 µM

Structure (SMILES): Nc1nc(Nc2cccc(Br)c2)c2ccn(Cc3ccc(Cl)cc3Cl)c2n1
- IC50 [1]: > 200 µM
- IC50 [2]: > 200 µM
- IC50 [3]: 34.2 µM
- IC50 [4]: 138 µM

Structure (SMILES): Nc1nc(Nc2cccc(Br)c2)c2ccn(Cc3ccc(Cl)cc3)c2n1
- IC50 [1]: 65.3 µM
- IC50 [2]: 99.9 µM
- IC50 [3]: > 500 µM
- IC50 [4]: 79.9 µM

Structure (SMILES): Nc1nc(Nc2cccc(Br)c2)c2ccn(Cc3ccc(-c4ccccc4)cc3)c2n1
- IC50 [1]: 22.9 µM
- IC50 [2]: > 200 µM
- IC50 [3]: 129 µM
- IC50 [4]: > 200 µM

Structure (SMILES): Nc1nc(Nc2cccc(Br)c2)c2ccn(Cc3ccccc3)c2n1
- IC50 [1]: 23.8 µM
- IC50 [2]: 166 µM
- IC50 [3]: > 500 µM
- IC50 [4]: 99.3 µM

Structure (SMILES): Nc1nc(Nc2cccc(Br)c2)c2cc(Cc3ccc(Cl)cc3)[nH]c2n1
- IC50 [5]: 8.28 µM
- IC50 [6]: 42.7 µM
- IC50 [7]: > 50 µM

Structure (SMILES): Nc1nc(Nc2cccc(Br)c2)c2ccn(Cc3ccc(Cl)c(Cl)c3)c2n1
- IC50 [1]: 64.5 µM
- IC50 [2]: > 200 µM
- IC50 [3]: 230 µM
- IC50 [4]: 119 µM

Structure (SMILES): COc1ccc(OC)c(Cn2ccc3c(Nc4cccc(Br)c4)nc(N)nc32)c1
- IC50 [1]: > 200 µM
- IC50 [2]: 69.2 µM
- IC50 [4]: > 200 µM

Structure (SMILES): Cc1ccccc1Cn1ccc2c(Nc3cccc(Br)c3)nc(N)nc21
- IC50 [1]: 113 µM
- IC50 [2]: 113 µM
- IC50 [3]: 160 µM
- IC50 [4]: 129 µM

Structure (SMILES): COc1cc(Cn2ccc3c(Nc4cccc(Br)c4)nc(N)nc32)cc(OC)c1OC
- IC50 [1]: 25.7 µM
- IC50 [2]: > 200 µM
- IC50 [3]: 1.8 µM
- IC50 [4]: 156 µM

Structure (SMILES): Nc1nc(Nc2cccc(Br)c2)c2cc(Cc3ccc(Cl)c(Cl)c3)[nH]c2n1
- IC50 [7]: > 50 µM

Structure (SMILES): Nc1nc(Nc2cccc(Br)c2)c2ccn(Cc3ccccc3Cl)c2n1
- IC50 [1]: 17.9 µM
- Activity (COLO 205 [8]): Active
- IC50 [2]: > 200 µM
- IC50 [3]: 1.5 µM
- MTD at 1008 h [9]: 35 mg/kg
- TGI (COLO 205 [10]): Active
- Activity (COLO 205 [11]): Active
- IC50 [4]: 126 µM

Structure (SMILES): Cc1[nH]c(/C=C2\C(=O)Nc3ccccc32)c(C)c1CCC(=O)O [ORANTINIB]
- MTD (Mus musculus): 10 mg/kg
- Activity (COLO 205 [12]): inactive
- Activity (COLO 205 [13]): Active
- TGI (COLO 205 [14]): Active

Structure (SMILES): Nc1nc(Nc2cccc(Br)c2)c2ccn(Cc3cccc4ccccc34)c2n1
- IC50 [1]: 14.9 µM
- IC50 [2]: > 200 µM
- IC50 [3]: 129 µM
- IC50 [4]: 150 µM

Source: ChEMBL document CHEMBL1955729, “N⁴-(3-Bromophenyl)-7-(substituted benzyl) pyrrolo[2,3-d]pyrimidines as potent multiple receptor tyrosine kinase inhibitors: design, synthesis, and in vivo evaluation” (Bioorg Med Chem, 2012)
